# Legend:
# Rattus norvegicus [1] = assay: Antithrombotic activity was determined in rat upon oral administration at dose 20 mg/kg (4 hours before); format: functional
# Rattus norvegicus [2] = assay: Antithrombotic activity was determined in rat upon oral administration at dose 3 mg/kg (4 hours before); format: functional
Compound,Activity (Rattus norvegicus [1]),Activity (Rattus norvegicus [2])
"CCc1cc(=O)oc2cc(OC3CCC(O)C(O)C3O)ccc12 (single isomer, unassigned; (-))",96%,
CCc1cc(=O)oc2cc(OC3SCC(O)[C@H](O)[C@H]3O)ccc12 (some centres undefined),,71%
CCc1cc(=O)oc2cc(OC3OCC(O)[C@H](O)[C@H]3O)ccc12 (some centres undefined),,71%
CCc1cc(=O)oc2cc(OC3CCC(O)[C@H](O)[C@H]3O)ccc12 (some centres undefined),20%,

# Source: ChEMBL document CHEMBL1130865, “Carbaxylosides of 4-ethyl-2-oxo-2H-benzopyran-7-yl as non-hydrolyzable, orally active venous antithrombotic agents” (1998)
